Series [1] has as its system γδ T cells. The note with it: read-out: EC50 (γδ T cell stimulation), cited from earlier work.
For series [2], the system named is γδ T cells. The series is classed as cell-based. The note with it: Homo sapiens, K562, read-out: ELISA EC50 μM (95% CI). On the technique in general: ELISA stands for enzyme-linked immunosorbent assay.
For series [3], the system named is γδ T cells. Description: T cell proliferation: expansion of γδ T cells from human PBMCs, flow cytometry. Format: cell-based. The note with it: for EC50: Homo sapiens, T-cell.
In the next series the test system is K562 cells. Description: K562 viability. The note with it: for IC50: read-out: Toxicity IC50 μM (95% CI); for direct toxicity (in words): K562 cells, 72 hours of exposure, doses of 100 μM or lower. Format: cell-based.
Setting [4] is: read-out: Proliferation EC50 μM (95% CI).
Setting [5] is: K562 leukemia cells, 72 hours exposure, n=3.

Read-outs that look alike come from different tables or passages of the source. Some results are limits rather than exact numbers.

`C/C(=C\CCP(=O)(O)O)CO` [C-HMBP]: the EC50 in the series with γδ T cells [1] is around 4 µM.
In the case of `COP(=O)(CC/C=C(\C)CO)OCOC(=O)c1ccc(/N=N/c2ccc(N(C)C)cc2)cc1` (stereo not drawn) [Compound 14, ((((E)-5-Hydroxy-4-methylpent-3-en-1-yl)(methoxy)phosphoryl)oxy)methyl 4-((E)-(4-(dimethylamino)phenyl)diazenyl)benzoate], the EC50 was 0.11 µM in the series with γδ T cells [2], 0.11 µM in the series on γδ T cells [3] (read-out: EC50 for stimulation of γδ T cells) and 0.099 µM with γδ T cells [3] (setting [4]). In the series on K562 cells (Homo sapiens, K562, 72 h), the 50% inhibitory concentration (IC50) turned out to be 36 µM. Also, the “direct toxicity (in words)” value in the series on K562 cells is “toxic at 100 μM”.
`COP(=O)(CC/C=C(\C)CO)Oc1ccc2ccc(=O)oc2c1` (stereo not drawn) [Compound 16, (E)-Methyl (2-oxo-2H-chromen-7-yl)(5-hydroxy-4-methylpent-3-en-1-yl)phosphonate]: the half-maximal inhibitory concentration (IC50) with K562 cells (setting [5]) is above 100 µM.
In the case of `C/C(=C\CCP(=O)(O)Oc1ccc2ccc(=O)oc2c1)CO` [Compound 17], the IC50 with K562 cells (setting [5]) was above 100 µM.
For `C/C(=C\CCP(=O)(OCOC(=O)c1ccc(/N=N/c2ccc(N(C)C)cc2)cc1)Oc1ccc2ccc(=O)oc2c1)CO` (stereo not drawn) [Compound 18, ((((E)-5-Hydroxy-4-methylpent-3-en-1-yl) ((2-oxo-2H-chromen-7-yl)oxy)phosphoryl)oxy)methyl 4-((E)-(4-(dimethylamino)phenyl)diazenyl)benzoate], the EC50 in the series with γδ T cells [2] amounted to 0.0075 µM; in the series on γδ T cells [3] (setting [4]), 0.0005 µM. The IC50 in the series with K562 cells (Homo sapiens, K562, 72 h) was 27 µM. In the series on K562 cells, the “direct toxicity (in words)” value is “toxic at 100 μM”.
As for `COc1ccc2cc(C(=O)NCCc3ccc(OP(=O)(CC/C=C(\C)COC(C)=O)OC)cc3)c(=O)oc2c1` (stereo not drawn) [Compound 22, (E)-5-(Methoxy(4-(2-(7-methoxy-2-oxo-2H-chromene-3-carboxamido)ethyl)phenoxy)phosphoryl) -2-methylpent-2-en-1-yl acetate], the EC50 in the series with γδ T cells [2] is above 10 µM; in the series on γδ T cells [3] (setting [4]) it was 5.8 µM. The “stimulation of proliferation (in words)” value in the series on γδ T cells [3] (γδ T cells from human PBMCs) is listed as “did not indicate substantial stimulation of proliferation”. Moreover, the IC50 in the series with K562 cells (Homo sapiens, K562, 72 h) is above 100 µM.
Take `COc1ccc2cc(C(=O)NCCc3ccc(OP(=O)(CC/C=C(\C)COC(C)=O)OCOC(=O)c4ccc(/N=N/c5ccc(N(C)C)cc5)cc4)cc3)c(=O)oc2c1` (stereo not drawn) [Compound 23]: in the series on K562 cells (setting [5]), the half-inhibitory concentration (IC50) was above 100 µM.
`C/C(=C\COP(=O)(O)OP(=O)(O)O)CO` [HMBPP, (E)-4-hydroxy-3-methyl-but-2-enyl diphosphate]: the EC50 with γδ T cells [1] (in our assays) was around 0.0005 µM.

In general, IC50 refers to the concentration needed to halve the response being measured.

Values taken from paper PMC8387413 (Bioorganic chemistry, 2021).
